In patent publication US6765010B2, “Compositions and methods for enhancing analgesic potency of tramadol and attenuating its adverse side effects” (Pain Therapeutics, Inc., priority 1999, dated 2004):

Key:
[1] = system: human subjects/patients with pain following dental surgery; assay: Dental surgery pain study: adverse events
[2] = system: human subjects/patients with pain following dental surgery; assay: Dental surgery pain study: time to onset of meaningful pain relief; type: in vivo; settings: ITT
From the text: For this randomized, double-blind, active-controlled and placebo-controlled, parallel-group study, human subjects were randomized into one of the following five treatment groups:
A positive control (T, Group 4) was used to determine the sensitivity of the clinical end points. A negative control (placebo, Group 5) was used to establish the frequency and magnitude of changes in clinical end points that may occur in the absence of an active treatment. A single oral dose of study medication was administered when the subject experienced moderate to severe pain following the surgical extraction of three or four third molars. At least one of the molars was required to be mandibular bony impacted.
A pain assessment was also performed post-treatment. Following dosing, pain intensity and pain relief was recorded at the following times: 30 minutes, 60 minutes and hourly thereafter up to Hour 8 after dosing. All efficacy assessments were recorded by the subject in a diary in response to questioning by the trained observer. […] Pain intensity was measured in response to the question, “How much pain do you have now?” with (1) subject response choices of none, mild, moderate and severe on a categorical scale, and (2) a mark on a 100-mm VAS. […]
Time to remedication (or rescue medication) was analyzed using the Kaplan-Meier estimate to compute the survival distribution function. […]

[3] = system: human subjects/patients with pain following dental surgery; assay: Dental surgery pain study: categorical pain intensity difference (PID, SPID); type: in vivo; settings: LOCF; for Hourly Pain Intensity Difference (PID) score, Mean / Hourly Pain Intensity Difference (PID) score, Median: ITT subjects, PID as numerical variable
[4] = ITT, counted once per subject (Table 15)
[5] = Severity = Moderate, ITT subjects

COc1cccc([C@@]2(O)CCCC[C@@H]2CN(C)C)c1.Cl (racemic) [tramadol, (1RS,2RS)-2[(dimethylamino)-methyl]-1-(3-methoxyphenyl)-cyclohexanol HCL]
Adverse events: Number (%) with Events ([1]; ITT, Severity = Severe): 3 (6.0%) n (%) | Adverse events: Number of Events ([1]; ITT, Severity = Severe): 3 events | Gastrointestinal Disorders, frequency (percentage) ([1]; ITT, Severity = Severe): 2 (4.0%) n (%) | Gastrointestinal Disorders, occurrence ([1]; ITT, Severity = Severe): 2 events | Headache Nos, frequency (percentage) ([1]; ITT, Severity = Severe): 1 (2.0%) n (%) | Headache Nos, occurrence ([1]; ITT, Severity = Severe): 1 events | Nausea, frequency (percentage) ([1]; ITT, Severity = Severe): 2 (4.0%) n (%) | Nausea, occurrence ([1]; ITT, Severity = Severe): 2 events | Nervous System Disorders, frequency (percentage) ([1]; ITT, Severity = Severe): 1 (2.0%) n (%) | Nervous System Disorders, occurrence ([1]; ITT, Severity = Severe): 1 events | Vomiting Nos, frequency (percentage) ([1]; ITT, Severity = Severe): 1 (2.0%) n (%) | Vomiting Nos, occurrence ([1]; ITT, Severity = Severe): 1 events | Adverse events: Number (%) with Events ([1]; ITT, all severities): 40 (80%) n (%) | Adverse events: Number of Events ([1]; ITT, all severities): 134 events | Dizziness (Exc Vertigo), frequency (percentage) ([1]; ITT, all severities): 15 (30.0%) n (%) | Dizziness (Exc Vertigo), occurrence ([1]; ITT, all severities): 19 events | Gastrointestinal Disorders, frequency (percentage) ([1]; ITT, all severities): 20 (40.0%) n (%) | Gastrointestinal Disorders, occurrence ([1]; ITT, all severities): 40 events | Headache Nos, frequency (percentage) ([1]; ITT, all severities): 28 (56.0%) n (%) | Headache Nos, occurrence ([1]; ITT, all severities): 38 events | Nausea, frequency (percentage) ([1]; ITT, all severities): 20 (40.0%) n (%) | Nausea, occurrence ([1]; ITT, all severities): 28 events | Nervous System Disorders, frequency (percentage) ([1]; ITT, all severities): 40 (80.0%) n (%) | Nervous System Disorders, occurrence ([1]; ITT, all severities): 89 events | Pruritus Nos, frequency (percentage) ([1]; ITT, all severities): 2(4.0%) n (%) | Pruritus Nos, occurrence ([1]; ITT, all severities): 2 events | Sedation, frequency (percentage) ([1]; ITT, all severities): 28 (56.0%) n (%) | Sedation, occurrence ([1]; ITT, all severities): 32 events | Skin & Subcutaneous Tissue Disorders, frequency (percentage) ([1]; ITT, all severities): 2 (4.0%) n (%) | Skin & Subcutaneous Tissue Disorders, occurrence ([1]; ITT, all severities): 2 events | Vomiting Nos, frequency (percentage) ([1]; ITT, all severities): 10 (20.0%) n (%) | Vomiting Nos, occurrence ([1]; ITT, all severities): 12 events | Incidence of Nausea, No [1, 4]: 30 (60.0%) n (%) | Incidence of Nausea, Yes [1, 4]: 20 (40.0%) n (%) | Incidence of Vomiting Nos, No [1, 4]: 40 (80.0%) n (%) | Incidence of Vomiting Nos, Yes [1, 4]: 10 (20.0%) n (%) | Dizziness (Exc Vertigo), frequency (subjects) ([1]; Severity = Mild, ITT subjects): 12 | Dizziness (Exc Vertigo), occurrence (events) ([1]; Severity = Mild, ITT subjects): 16 | Dizziness (Exc Vertigo), percentage of subjects ([1]; Severity = Mild, ITT subjects): 24.0% | Gastrointestinal Disorders, frequency (subjects) ([1]; Severity = Mild, ITT subjects): 6 | Gastrointestinal Disorders, occurrence (events) ([1]; Severity = Mild, ITT subjects): 15 | Gastrointestinal Disorders, percentage of subjects ([1]; Severity = Mild, ITT subjects): 12.0% | Headache Nos, frequency (subjects) ([1]; Severity = Mild, ITT subjects): 17 | Headache Nos, occurrence (events) ([1]; Severity = Mild, ITT subjects): 26 | Headache Nos, percentage of subjects ([1]; Severity = Mild, ITT subjects): 34.0% | Nausea, frequency (subjects) ([1]; Severity = Mild, ITT subjects): 9 | Nausea, occurrence (events) ([1]; Severity = Mild, ITT subjects): 14 | Nausea, percentage of subjects ([1]; Severity = Mild, ITT subjects): 18.0% | Nervous System Disorders, frequency (subjects) ([1]; Severity = Mild, ITT subjects): 23 | Nervous System Disorders, occurrence (events) ([1]; Severity = Mild, ITT subjects): 66 | Nervous System Disorders, percentage of subjects ([1]; Severity = Mild, ITT subjects): 46.0% | Number of Events ([1]; Severity = Mild, ITT subjects): 84 | Number of subjects with adverse events ([1]; Severity = Mild, ITT subjects): 15 | Percentage of subjects with adverse events ([1]; Severity = Mild, ITT subjects): 30.0% | Pruritus Nos, frequency (subjects) ([1]; Severity = Mild, ITT subjects): 2 | Pruritus Nos, occurrence (events) ([1]; Severity = Mild, ITT subjects): 2 | Pruritus Nos, percentage of subjects ([1]; Severity = Mild, ITT subjects): 4.0% | Sedation, frequency (subjects) ([1]; Severity = Mild, ITT subjects): 21 | Sedation, occurrence (events) ([1]; Severity = Mild, ITT subjects): 24 | Sedation, percentage of subjects ([1]; Severity = Mild, ITT subjects): 42.0% | Skin & Subcutaneous Tissue Disorders, frequency (subjects) ([1]; Severity = Mild, ITT subjects): 2 | Skin & Subcutaneous Tissue Disorders, occurrence (events) ([1]; Severity = Mild, ITT subjects): 2 | Skin & Subcutaneous Tissue Disorders, percentage of subjects ([1]; Severity = Mild, ITT subjects): 4.0% | Vomiting Nos, frequency (subjects) ([1]; Severity = Mild, ITT subjects): 3 | Vomiting Nos, occurrence (events) ([1]; Severity = Mild, ITT subjects): 4 | Vomiting Nos, percentage of subjects ([1]; Severity = Mild, ITT subjects): 6.0% | Dizziness (Exc Vertigo), frequency (subjects) [1, 5]: 3 | Dizziness (Exc Vertigo), occurrence (events) [1, 5]: 3 | Dizziness (Exc Vertigo), percentage of subjects [1, 5]: 6.0% | Gastrointestinal Disorders, frequency (subjects) [1, 5]: 12 | Gastrointestinal Disorders, occurrence (events) [1, 5]: 23 | Gastrointestinal Disorders, percentage of subjects [1, 5]: 24.0% | Headache Nos, frequency (subjects) [1, 5]: 10 | Headache Nos, occurrence (events) [1, 5]: 11 | Headache Nos, percentage of subjects [1, 5]: 20.0% | Nausea, frequency (subjects) [1, 5]: 10 | Nausea, occurrence (events) [1, 5]: 13 | Nausea, percentage of subjects [1, 5]: 20.0% | Nervous System Disorders, frequency (subjects) [1, 5]: 16 | Nervous System Disorders, occurrence (events) [1, 5]: 22 | Nervous System Disorders, percentage of subjects [1, 5]: 32.0% | Number of Events [1, 5]: 47 | Number of subjects with adverse events [1, 5]: 22 | Percentage of subjects with adverse events [1, 5]: 44.0% | Sedation, frequency (subjects) [1, 5]: 7 | Sedation, occurrence (events) [1, 5]: 8 | Sedation, percentage of subjects [1, 5]: 14.0% | Vomiting Nos, frequency (subjects) [1, 5]: 9 | Vomiting Nos, occurrence (events) [1, 5]: 10 | Vomiting Nos, percentage of subjects [1, 5]: 18.0% | Time to Onset of Meaningful Pain Relief, Median ([2]; Kaplan-Meier): 3.85 h | Number of Subjects with Meaningful Pain Relief ([2]; within 8 hours): 17 subjects | Hourly Pain Intensity Difference (PID) score, Mean ([3]; Hour 0.5): −0.22 | Hourly Pain Intensity Difference (PID) score, Median ([3]; Hour 0.5): 0 | Hourly Pain Intensity Difference (PID) score, Mean ([3]; Hour 1): −0.30 | Hourly Pain Intensity Difference (PID) score, Median ([3]; Hour 1): 0 | Hourly Pain Intensity Difference (PID) score, Mean ([3]; Hour 2): −0.06 | Hourly Pain Intensity Difference (PID) score, Median ([3]; Hour 2): 0 | Hourly Pain Intensity Difference (PID) score, Mean ([3]; Hour 3): −0.06 | Hourly Pain Intensity Difference (PID) score, Median ([3]; Hour 3): 0 | Hourly Pain Intensity Difference (PID) score, Mean ([3]; Hour 4): 0.06 | Hourly Pain Intensity Difference (PID) score, Median ([3]; Hour 4): 0 | Hourly Pain Intensity Difference (PID) score, Mean ([3]; Hour 5): 0.00 | Hourly Pain Intensity Difference (PID) score, Median ([3]; Hour 5): 0 | Hourly Pain Intensity Difference (PID) score, Mean ([3]; Hour 6): 0.04 | Hourly Pain Intensity Difference (PID) score, Median ([3]; Hour 6): 0 | Hourly Pain Intensity Difference (PID) score, Mean ([3]; Hour 7): −0.02 | Hourly Pain Intensity Difference (PID) score, Median ([3]; Hour 7): 0 | Hourly Pain Intensity Difference (PID) score, Mean ([3]; Hour 8): 0.02 | Hourly Pain Intensity Difference (PID) score, Median ([3]; Hour 8): 0 | SPID up to 4 Hours, Mean ([3]; ITT, single oral dose): −0.58 | SPID up to 4 Hours, Median ([3]; ITT, single oral dose): 0 | SPID up to 6 Hours, Mean ([3]; ITT, single oral dose): −0.54 | SPID up to 6 Hours, Median ([3]; ITT, single oral dose): 0 | SPID up to 8 Hours, Mean ([3]; ITT, single oral dose): −0.54 | SPID up to 8 Hours, Median ([3]; ITT, single oral dose): 0
